Holding throughout (assay type): functional
A short description of test [1]: Growth inhibition of human NPC-TW01 cells after 72 hrs by MTT assay. The conditions noted are these: NPC-TW01, 72 h. (Tetrazolium dyes change colour on reduction, which living cells bring about.)
For another test, the system named is Jurkat. Kind of test: Growth inhibition of human Jurkat cells after 72 hrs by MTT assay.
The next test deals with NCI-H661. The experiment in a line: Growth inhibition of human NCI-H661 cells after 72 hrs by MTT assay. The conditions noted are these: NCI-H661, 72 h.

Here are results for 19 compounds from ChEMBL document CHEMBL1268846, “Synthesis and antiproliferative evaluation of N,N-disubstituted-N'-[1-aryl-1H-pyrazol-5-yl]-methnimidamides” (2010).

Molecules are shown by their SMILES. Where only a bound is given, the exact number is not on record here.

By GI50 is commonly meant the concentration that inhibits growth by half. Read a low GI50 as greater sensitivity of the cells. Consider `CN(C)/C=N/c1c(C=O)c(-c2ccccc2)nn1-c1ccccc1`, for which the GI50 is 9.3 µM in test [1], 23.5 µM in the test with Jurkat and 31.4 µM in the test on NCI-H661.

On to `CN(C)/C=N/c1c(C=O)c(-c2ccccc2)nn1-c1ccccc1Cl`, for which the GI50 in test [1] came out at 23.3 µM; in the test on Jurkat, 26.3 µM; in the test with NCI-H661 it was 31.4 µM.

For the compound `Cc1cccc(-n2nc(-c3ccccc3)c(C=O)c2/N=C/N(C)C)c1`, the figures for the GI50 (in test [1]; in the test on Jurkat; with NCI-H661) were 8.9 µM, 9.7 µM and 31 µM, respectively.

On to `CN(C)/C=N/c1c(C=O)c(-c2ccccc2)nn1-c1cccc(Cl)c1`, for which the GI50 in test [1] turned out to be 6.4 µM; in the test with Jurkat it was 8.3 µM; in the test on NCI-H661, 6.9 µM.

Consider `CN(C)/C=N/c1c(C=O)c(-c2ccccc2)nn1-c1cccc([N+](=O)[O-])c1`, for which the concentration for 50% growth inhibition (GI50) is 36.7 µM in test [1], greater than 50 µM with Jurkat and 50 µM with NCI-H661.

As for `CN(C)/C=N/c1c(C=O)c(-c2ccccc2)nn1-c1ccc(Br)cc1`, the GI50 in test [1] was 7.4 µM; in the test on Jurkat it was 7.3 µM; in the test with NCI-H661 it was 6.7 µM.

Turning to `COc1ccc(-n2nc(-c3ccccc3)c(C=O)c2/N=C/N(C)C)cc1`, the GI50 in test [1] came out at 20.2 µM; in the test on Jurkat, 19.7 µM; in the test with NCI-H661, 33.4 µM.

`Cc1ccc(-c2nn(-c3ccccc3)c(/N=C/N(C)C)c2C=O)cc1`: the GI50 was determined as 9.7 µM in test [1], 9.5 µM in the test on Jurkat and 11.9 µM in the test with NCI-H661.

For the compound `CN(C)/C=N/c1c(C=O)c(-c2ccc(Cl)cc2)nn1-c1ccccc1`, the GI50 in test [1] turned out to be 8.1 µM; with Jurkat, 7.9 µM; with NCI-H661, 8.6 µM.

As for `COc1ccc(-c2nn(-c3ccccc3)c(/N=C/N(C)C)c2C=O)cc1`, the values for the GI50 (in test [1]; in the test with Jurkat; in the test on NCI-H661) were 27.2 µM, 12.5 µM and 9.9 µM, respectively.

On to `CN(C)/C=N/c1c(C=O)c(C(C)(C)C)nn1-c1ccccc1`, for which the GI50 was greater than 50 µM in test [1], 43.5 µM in the test on Jurkat and 42.8 µM in the test with NCI-H661.

As to `CCN(/C=N/c1c(C=O)c(-c2ccccc2)nn1-c1ccccc1)CC`, the GI50 was determined as 30.5 µM in test [1], 30 µM in the test on Jurkat and 28.8 µM in the test on NCI-H661.

In the case of `O=Cc1c(-c2ccccc2)nn(-c2ccccc2)c1/N=C/N1CCCC1`, the GI50 was greater than 50 µM in test [1], 31.3 µM in the test with Jurkat and 17.6 µM in the test on NCI-H661.

On to `O=Cc1c(-c2ccccc2)nn(-c2ccccc2)c1/N=C/N1CCCCC1`, for which the GI50 in test [1] was found to be 24.4 µM; in the test on Jurkat, 29 µM; with NCI-H661, 17.7 µM.

As to `CN/C=N/c1cc(-c2ccccc2)nn1-c1ccccc1`, the GI50 (in test [1]; in the test on Jurkat; in the test with NCI-H661) was greater than 50 µM each time.

Take `CN/C(C)=N/c1cc(-c2ccccc2)nn1-c1ccccc1`: the GI50 (in test [1]; in the test with Jurkat; with NCI-H661) was greater than 50 µM in each case.

In the case of `CC/C(=N\c1cc(-c2ccccc2)nn1-c1ccccc1)NC`, the GI50 (in test [1]; in the test with Jurkat; in the test with NCI-H661) was greater than 50 µM each time.

Regarding `C/C(=N\c1cc(-c2ccccc2)nn1-c1ccccc1)N(C)C`, the 50% growth inhibitory concentration (GI50) in test [1] was greater than 50 µM; in the test with Jurkat, greater than 50 µM; in the test on NCI-H661, 35.1 µM.

Regarding `CN(C)/C(=N/c1cc(-c2ccccc2)nn1-c1ccccc1)c1ccccc1`, the GI50 was determined as 20.8 µM in test [1], 36.1 µM in the test on Jurkat and 46.7 µM with NCI-H661.
